Earlier results in US20030149010A1, “Combination of an aldosterone receptor antagonist and an HMG CoA reductase inhibitor” (priority 2001, published 2003).

Tests used:
[1] = system: patients with severe heart failure; conditions: spironolactone added to ACE inhibitor therapy; 1663 patients with severe heart failure
[2] = system: patients afflicted with congestive heart failure; conditions: coadministered with an ACE inhibitor

Question: Which reduction in hospitalizations [1] does the source give for CC(=O)S[C@@H]1CC2=CC(=O)CC[C@]2(C)[C@H]2CC[C@@]3(C)[C@@H](CC[C@@]34CCC(=O)O4)[C@H]12 [spironolactone, 17-hydroxy-7α-mercapto-3-oxo-17α-pregn-4-ene-21-carboxylic acid γ-lactone acetate] here?
Answer: 35%

Question: What about the reduction in mortality [1] of the same molecule?
Answer: 30%

Question: What about the “effectiveness in congestive heart failure” value [2] of the same molecule?
Answer: highly effective in 13 of 16 patients
